Measured values: patent publication US11547681B2, “N-acylethanolamide derivatives and uses thereof” (ELIEM THERAPEUTICS, INC., priority 2016, dated 2023)

Test: in vitro
Details: for Measured concentration of PEA (analyte) / % Remaining of Initial / Measured concentration of analyte PEA, 0 min / Measured concentration of analyte PEA, 10 min / Measured concentration of analyte PEA, 20 min / Measured concentration of analyte PEA, 30 min / Measured concentration of analyte PEA, 60 min / % Remaining of Initial, 0 min / % Remaining of Initial, 10 min / % Remaining of Initial, 20 min / % Remaining of Initial, 30 min / % Remaining of Initial, 60 min: 1 μM; for % Remaining of Initial / microsomal CLint at 1 μM / half-life at 1 μM / % Remaining of Initial, 0 min / % Remaining of Initial, 10 min / % Remaining of Initial, 20 min / % Remaining of Initial, 30 min / % Remaining of Initial, 60 min: microsomes
Description: The reaction mixture, minus cofactors, was prepared as described below. The test article was added into the reaction mixture at a final concentration of 1 μM. […] An aliquot of the reaction mixture (without cofactor) was equilibrated in a shaking water bath at 37° C. for 3 minutes. The reaction was initiated by the addition of cofactor, and the mixture was incubated in a shaking water bath at 37° C. Aliquots (100 μL) were withdrawn at 0, 10, 20, 30, and 60 minutes. All samples were immediately combined with 400 μL of ice-cold 50/50 acetonitrile/H2O containing 0.1% formic acid and internal standard to terminate the reaction. The samples were then mixed and centrifuged to precipitate proteins. Calibration standards were prepared in matched matrix. All samples and standards were assayed by LC-MS/MS using electrospray ionization for both the dosed prodrug I-9 and the expected drug (PEA). Analytical conditions are outlined in Appendix 4-1. The test article concentration at each time point was compared to the test article concentration at time 0 to determine the percent remaining at each time point. Half-lives were calculated using GraphPad software, fitting to a single-phase exponential decay equation.
Reaction mixture, minus cofactors, was prepared as described below. Test article was added into the reaction mixture at a final concentration of 1 μM. […] An aliquot of the reaction mixture (without cofactor) was equilibrated in a shaking water bath at 37° C. for 3 minutes. The reaction was initiated by the addition of cofactor, and the mixture was incubated in a shaking water bath at 37° C. Aliquots (100 μL) were withdrawn at 0, 10, 20, 30, and 60 minutes. Test article samples were immediately combined with 300 μL of ice-cold acetonitrile containing 1% formic acid. Control samples were immediately combined with 400 μL of ice-cold 50/50 acetonitrile (ACN)/dH2O containing 0.1% formic acid and internal standard to terminate the reaction. Samples were then mixed and centrifuged to precipitate proteins. Calibration standards were prepared in matched matrix. Samples and standards were assayed by LC-MS/MS using electrospray ionization for both dosed prodrug and expected drug (PEA). Analytical conditions are outlined in Appendix 8-1. Test article concentration at each time point was compared to test article concentration at time 0 to determine the percent remaining at each time point. Half-lives were calculated using GraphPad software, fitting to a single-phase exponential decay equation.
Reaction mixture, minus cofactors, was prepared as described below. Test article was added into the reaction mixture at a final concentration of 1 μM. […] An aliquot of the reaction mixture (without cofactor) was equilibrated in a shaking water bath at 37° C. for 5 minutes. Reaction was initiated by the addition of cofactor, and the mixture was incubated in a shaking water bath at 37° C. Aliquots (100 μL) were withdrawn at 0, 10, 20, 30, and 60 minutes. Test article samples were immediately combined with 300 μL of ice-cold acetonitrile containing 1% formic acid. Control samples were immediately combined with 400 μL of ice-cold 50/50 acetonitrile (ACN)/dH2O containing 0.1% formic acid and internal standard to terminate the reaction. Samples were then mixed and centrifuged to precipitate proteins. Calibration standards were prepared in matched matrix. Samples and standards were assayed by LC-MS/MS using electrospray ionization for both the dosed prodrug and the expected drug (PEA). Analytical conditions are outlined in Appendix 10-1. Test article concentration at each time point was compared to the test article concentration at time 0 to determine the percent remaining at each time point. Half-lives were calculated using GraphPad software, fitting to a single-phase exponential decay equation.
Reaction mixture, minus cofactors, was prepared as described below. Test article was added into the reaction mixture at a final concentration of 1 μM.

[1] = both, human, calculated value in parentheses
[2] = male, Sprague-Dawley, rat, 0 min
[3] = male, Sprague-Dawley, rat, 10 min
[4] = male, Sprague-Dawley, rat, 20 min
[5] = male, Sprague-Dawley, rat, 30 min
[6] = male, Sprague-Dawley, rat, 60 min
[7] = male, Sprague-Dawley, rat, 0.5 h
[8] = male, Sprague-Dawley, rat, calculated value in parentheses
[9] = male, Sprague-Dawley, rat, Half-life

CCCCCCCCCCCCCCCC(=O)NCCOC(=O)CCC(=O)OC(COC(=O)CCC)COC(=O)CCC [Compound I-16]
Measured concentration of PEA (analyte) (both, human, 0 min): 0 µM | Measured concentration of PEA (analyte) (both, human, 10 min): 0.22 µM | Measured concentration of PEA (analyte) (both, human, 20 min): 0.15 µM | Measured concentration of PEA (analyte) (both, human, 30 min): 0.14 µM | Measured concentration of PEA (analyte) (both, human, 60 min): 0.069 µM | % Remaining of Initial (both, human, 0 h): 100% | % Remaining of Initial (both, human, 10 min): 8.0% | % Remaining of Initial (both, human, 20 min): 3.5% | % Remaining of Initial (both, human, 0.5 h): 1.9% | % Remaining of Initial (both, human, 1 h): <1.0% | microsomal CLint at 1 μM (both, human): > 139 µL/min/mg | microsomal CLint at 1 μM [1]: 493 µL/min/mg | half-life at 1 μM (both, human, Half-life): < 10 min | half-life at 1 μM (both, human, Half-life, calculated value in parentheses): 2.8 min | Measured concentration of PEA (analyte) [2]: 0.025 µM | Measured concentration of PEA (analyte) [3]: 0.033 µM | Measured concentration of PEA (analyte) [4]: 0.015 µM | Measured concentration of PEA (analyte) [5]: 0 µM | Measured concentration of PEA (analyte) [6]: 0 µM | % Remaining of Initial (male, Sprague-Dawley, rat, 0 h): 100% | % Remaining of Initial [3]: 9.7% | % Remaining of Initial [4]: 4.2% | % Remaining of Initial [7]: 3.1% | % Remaining of Initial (male, Sprague-Dawley, rat, 1 h): <1.0% | microsomal CLint at 1 μM (male, Sprague-Dawley, rat): > 139 µL/min/mg | microsomal CLint at 1 μM [8]: 452 µL/min/mg | half-life at 1 μM [9]: < 10 min | half-life at 1 μM (male, Sprague-Dawley, rat, Half-life, calculated value in parentheses): 3.1 min

CCCCC/C=C\C/C=C\CCCCCCCC(=O)OCCNC(=O)CCCCCCCCCCCCCCC [Compound I-6]
Measured concentration of analyte PEA, 0 min (both, human, 0 min): 0 µM | Measured concentration of analyte PEA, 10 min (both, human, 10 min): 0 µM | Measured concentration of analyte PEA, 20 min (both, human, 20 min): 0 µM | Measured concentration of analyte PEA, 30 min (both, human, 30 min): 0 µM | Measured concentration of analyte PEA, 60 min (both, human, 60 min): 0 µM | % Remaining of Initial, 0 min (both, human, 0 h): 100% | % Remaining of Initial, 10 min (both, human, 10 min): 82% | % Remaining of Initial, 20 min (both, human, 20 min): 58% | % Remaining of Initial, 30 min (both, human, 0.5 h): 66% | % Remaining of Initial, 60 min (both, human, 1 h): 68% | microsomal CLint at 1 μM (both, human): < 23.1 µL/min/mg | microsomal CLint at 1 μM [1]: 14.3 µL/min/mg | half-life at 1 μM (both, human, Calculated half-life (in parentheses)): 97 min | half-life at 1 μM (both, human, Half-life): > 60 min | Measured concentration of analyte PEA, 0 min [2]: 0.14 µM | Measured concentration of analyte PEA, 10 min [3]: 0.064 µM | Measured concentration of analyte PEA, 20 min [4]: 0.017 µM | Measured concentration of analyte PEA, 30 min [5]: 0.0098 µM | Measured concentration of analyte PEA, 60 min [6]: 0.0012 µM | % Remaining of Initial, 0 min (male, Sprague-Dawley, rat, 0 h): 100% | % Remaining of Initial, 10 min [3]: 68% | % Remaining of Initial, 20 min [4]: 67% | % Remaining of Initial, 30 min [7]: 62% | % Remaining of Initial, 60 min (male, Sprague-Dawley, rat, 1 h): 53% | microsomal CLint at 1 μM (male, Sprague-Dawley, rat): < 23.1 µL/min/mg | microsomal CLint at 1 μM [8]: 21.9 µL/min/mg | half-life at 1 μM (male, Sprague-Dawley, rat, Calculated half-life (in parentheses)): 63 min | half-life at 1 μM [9]: > 60 min
